Test results: PubChem BioAssay AID248 (DTP/NCI, 2004)
Where “and” joins values, the source holds several entries; their conditions need not be identical. Equal values may be shown once. Toxic doses and inconclusive results are not listed. Rule as the data show it: active = T/C of 150% or more; inactive = T/C below 125%.

System: L1210 leukemia ip in BDF1 mice, survival T/C
Test: NCI In Vivo Anticancer Drug Screen. Data for tumor model L1210 Leukemia (intraperitoneal) in B6D2F1 (BDF1) mice
Details: endpoint: mean survival time, higher = longer survival
In short: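 Value reflects the ratio of survival in compound-treated mice to survival in vehicle-treated controls, with both groups carrying the same transplanted tumor.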

[1] = dose: 100.0 mg/kg/injection, schedule: Q01DX001 (ip), vehicle: carboxymethylcellulose (CMC)
[2] = dose: 200.0 mg/kg/injection, schedule: Q01DX001 (ip), vehicle: carboxymethylcellulose (CMC)
[3] = dose: 400.0 mg/kg/injection, schedule: Q01DX001 (ip), vehicle: carboxymethylcellulose (CMC)
[4] = dose: 100.0 mg/kg/injection, schedule: Q01DX009 (ip), vehicle: saline
[5] = dose: 200.0 mg/kg/injection, schedule: Q01DX009 (ip), vehicle: saline
[6] = dose: 400.0 mg/kg/injection, schedule: Q01DX009 (ip), vehicle: saline
[7] = dose: 100.0 mg/kg/injection, schedule: Q04DX003 (ip), vehicle: Klucel (hydroxypropylcellulose) (HPC)
[8] = dose: 400.0 mg/kg/injection, schedule: Q04DX003 (ip), vehicle: Klucel (hydroxypropylcellulose) (HPC)
[9] = dose: 100.0 mg/kg/injection, schedule: Q01DX009 (ip), vehicle: Klucel (hydroxypropylcellulose) (HPC)
[10] = dose: 100.0 mg/kg/injection, schedule: Q04DX002 (ip), vehicle: Klucel (hydroxypropylcellulose) (HPC)
[11] = dose: 200.0 mg/kg/injection, schedule: Q01DX009 (ip), vehicle: Klucel (hydroxypropylcellulose) (HPC)
[12] = dose: 200.0 mg/kg/injection, schedule: Q04DX002 (ip), vehicle: Klucel (hydroxypropylcellulose) (HPC)
[13] = dose: 400.0 mg/kg/injection, schedule: Q01DX009 (ip), vehicle: Klucel (hydroxypropylcellulose) (HPC)
[14] = dose: 400.0 mg/kg/injection, schedule: Q04DX002 (ip), vehicle: Klucel (hydroxypropylcellulose) (HPC)
[15] = dose: 100.0 mg/kg/injection, schedule: Q04DX003 (ip), vehicle: saline with Tween-80
[16] = dose: 200.0 mg/kg/injection, schedule: Q04DX003 (ip), vehicle: saline with Tween-80
[17] = dose: 400.0 mg/kg/injection, schedule: Q04DX003 (ip), vehicle: saline with Tween-80
[18] = dose: 100.0 mg/kg/injection, schedule: Q01DX001 (ip), vehicle: saline
[19] = dose: 100.0 mg/kg/injection, schedule: Q04DX003 (ip), vehicle: saline
[20] = dose: 200.0 mg/kg/injection, schedule: Q01DX001 (ip), vehicle: saline
[21] = dose: 200.0 mg/kg/injection, schedule: Q04DX003 (ip), vehicle: saline
[22] = dose: 400.0 mg/kg/injection, schedule: Q01DX001 (ip), vehicle: saline
[23] = dose: 400.0 mg/kg/injection, schedule: Q04DX003 (ip), vehicle: saline
[24] = dose: 100.0 mg/kg/injection, schedule: Q01DX009 (ip), vehicle: saline with Tween-80
[25] = dose: 200.0 mg/kg/injection, schedule: Q01DX009 (ip), vehicle: saline with Tween-80
[26] = dose: 400.0 mg/kg/injection, schedule: Q01DX009 (ip), vehicle: saline with Tween-80

Measured: T/C

CC12CCC(=O)C=C1CCC1C2C(O)CC2(C)C1CCC2(O)C(=O)CSc1ccc(N(CCCl)CCCl)cc1 (stereo unspecified)
inactive: dose: 100.0 mg/kg/injection, schedule: Q01DX001 (sc), vehicle: steriod suspending solution 92 % of control | dose: 200.0 mg/kg/injection, schedule: Q01DX001 (sc), vehicle: steriod suspending solution 100 % of control | dose: 400.0 mg/kg/injection, schedule: Q01DX001 (sc), vehicle: steriod suspending solution 103 % of control

CC[N+](CC)(CCO)CCCCCCCCCC[N+](CC)(CC)CCO
inactive: dose: 0.15 mg/kg/injection, schedule: Q04DX003 (ip), vehicle: saline 100 % of control | dose: 0.3 mg/kg/injection, schedule: Q04DX003 (ip), vehicle: saline 103 % of control | dose: 0.6 mg/kg/injection, schedule: Q04DX003 (ip), vehicle: saline 105 % of control

O=c1[nH]nc(-c2ccc3c(c2)Cc2ccccc2-3)c2ccccc12
inactive: [1] 100 % of control | [2] 94 % of control | [3] 97 % of control

O=[N+]([O-])c1ccc(N/N=C\c2ccc3ccccc3n2)cc1
inactive: [4] 97 % of control | [5] 104 % of control | [6] 91 % of control

CCCCCCCc1cc(=O)n(-c2ccc([N+](=O)[O-])cc2)n1C
inactive: [7] 92 % of control | dose: 200.0 mg/kg/injection, schedule: Q04DX003 (ip), vehicle: Klucel (hydroxypropylcellulose) (HPC) 91 % of control | [8] 94 % of control

FC(F)(F)c1ccccc1NC(=S)N(Cc1ccccc1)Cc1ccccc1
inactive: [9] 92 % of control | [10] 110 % of control | [11] 103 % of control | [12] 92 % of control | [13] 96 % of control | [14] 100 % of control

CCCCCC(Br)C(Br)CC(Br)C(Br)CCCCCCCC(=O)O (stereo unspecified)
inactive: [9] 95 % of control | [7] 98 % of control | [15] 98 % of control | [11] 90 % of control | [16] 97 % of control | [13] 93 % of control | [8] 93 % of control | [17] 91 % of control

Cc1cccc(N=Cc2ccc3c(c2)OCO3)c1
inactive: dose: 50.0 mg/kg/injection, schedule: Q01DX009 (ip), vehicle: saline 94 % of control | [4] 94 % of control | [5] 94 % of control

O=C(N1CCC(CCCc2ccccc2)CC1)C(Cl)(Cl)Cl
inactive: [10] 95 % of control | [12] 95 % of control | [14] 100 % of control

CCCN
inactive: [18] 107 % of control | [4] 106 % of control and 107 % of control | dose: 100.0 mg/kg/injection, schedule: Q04DX002 (ip), vehicle: saline 103 % of control and 108 % of control | [19] 103 % of control | [20] 100 % of control | [5] 93 % of control and 109 % of control | dose: 200.0 mg/kg/injection, schedule: Q04DX002 (ip), vehicle: saline 99 % of control and 106 % of control | [21] 96 % of control | [22] 105 % of control | [6] 111 % of control and 117 % of control | dose: 400.0 mg/kg/injection, schedule: Q04DX002 (ip), vehicle: saline 105 % of control and 108 % of control | [23] 96 % of control

NC(=O)NNC(O)(C(F)(F)F)C(F)(F)F
inactive: [1] 103 % of control | [2] 108 % of control

COc1ccc(NC(=O)Nc2ccccc2OC)cc1
inactive: [24] 98 % of control | [15] 105 % of control | [25] 101 % of control | [16] 97 % of control | [26] 98 % of control | [17] 103 % of control

OCC1(O)CCC1
inactive: [4] 102 % of control | [19] 94 % of control | [5] 99 % of control | [21] 103 % of control | [6] 107 % of control | [23] 96 % of control

COc1ccc(C(=O)C(C)Br)c(OCc2ccccc2)c1OC (stereo unspecified)
inactive: [24] 107 % of control | [15] 106 % of control | [25] 97 % of control | [16] 90 % of control | [26] 98 % of control | [17] 105 % of control

O=[N+]([O-])c1cccc(/C=C/C=C/c2ccc(Cl)c(Cl)c2)c1
inactive: [10] 100 % of control | [12] 93 % of control | [14] 96 % of control

C/C=C/N1CCN(/C=C/C)C1=O
inactive: dose: 25.0 mg/kg/injection, schedule: Q04DX002 (ip), vehicle: Klucel (hydroxypropylcellulose) (HPC) 96 % of control | dose: 50.0 mg/kg/injection, schedule: Q04DX002 (ip), vehicle: Klucel (hydroxypropylcellulose) (HPC) 102 % of control | [10] 90 % of control

CCOC(=O)CNC(=O)Oc1ccc2c(C)cc(=O)oc2c1
inactive: dose: 25.0 mg/kg/injection, schedule: Q01DX009 (ip), vehicle: carboxymethylcellulose (CMC) 100 % of control and 106 % of control | dose: 50.0 mg/kg/injection, schedule: Q01DX009 (ip), vehicle: carboxymethylcellulose (CMC) 98 % of control and 100 % of control | dose: 100.0 mg/kg/injection, schedule: Q01DX009 (ip), vehicle: carboxymethylcellulose (CMC) 93 % of control and 97 % of control | dose: 100.0 mg/kg/injection, schedule: Q04DX002 (ip), vehicle: carboxymethylcellulose (CMC) 98 % of control and 102 % of control | dose: 100.0 mg/kg/injection, schedule: Q04DX003 (ip), vehicle: carboxymethylcellulose (CMC) 92 % of control and 90 % of control | dose: 200.0 mg/kg/injection, schedule: Q01DX009 (ip), vehicle: carboxymethylcellulose (CMC) 100 % of control | dose: 200.0 mg/kg/injection, schedule: Q04DX002 (ip), vehicle: carboxymethylcellulose (CMC) 93 % of control and 97 % of control | dose: 200.0 mg/kg/injection, schedule: Q04DX003 (ip), vehicle: carboxymethylcellulose (CMC) 92 % of control and 87 % of control | dose: 400.0 mg/kg/injection, schedule: Q04DX002 (ip), vehicle: carboxymethylcellulose (CMC) 104 % of control and 105 % of control | dose: 400.0 mg/kg/injection, schedule: Q04DX003 (ip), vehicle: carboxymethylcellulose (CMC) 94 % of control and 101 % of control

O=[N+]([O-])c1ccn(O)c(=Nc2ccccc2)c1
inactive: [18] 108 % of control | [20] 104 % of control | [22] 100 % of control

O=C(O)C1CC(=O)N(Cc2ccccc2)C1 (stereo unspecified)
inactive: [24] 102 % of control | [15] 100 % of control | [25] 90 % of control | [16] 107 % of control | [26] 98 % of control | [17] 96 % of control

C=CC(C)C(C)CC (stereo unspecified)
inactive: dose: 50.0 mg/kg/injection, schedule: Q01DX001 (ip), vehicle: carboxymethylcellulose (CMC) 104 % of control | [1] 95 % of control | [2] 93 % of control | [3] 101 % of control

CCCCCCCCCCCCCCCCCCNC(=O)Nc1cccc(NC(C)=O)c1
inactive: [9] 91 % of control | [11] 88 % of control | [13] 98 % of control

O=C(Cc1c[nH]c2ccccc12)N/N=C\c1c[nH]c2ccccc12
inactive: [20] 97 % of control | [22] 92 % of control
